Results reported in ChEMBL document CHEMBL1201862, “PubChem BioAssay data set” (2004).
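Results reflect a 48-hour exposure of cells in 96-well plates to compound at five concentrations. The concentration for 50% growth inhibition is given as GI50.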 Active and inactive are the calls of the source. No stated cut-off is given here; in the data, active = GI50 up to about 1.1 µM and inactive = higher.

Tests used:
Assay in all cases: growth of human tumour cells (NCI), 48 h
CCRF-CEM = test system: CCRF-CEM
NCI-H23 = test system: NCI-H23
Malme-3M = test system: Malme-3M
SK-OV-3 = test system: SK-OV-3
RXF 393 = test system: RXF 393
LOX IMVI = test system: LOX IMVI
SNB-19 = test system: SNB-19
OVCAR-8 = test system: OVCAR-8
SR = test system: SR
U-251 = test system: U-251
A498 = test system: A498
EKVX = test system: EKVX
SK-MEL-5 = test system: SK-MEL-5
SF-295 = test system: SF-295
HL-60 = test system: HL-60
UACC-257 = test system: UACC-257
OVCAR-4 = test system: OVCAR-4

Measured: GI50

CC(C)(C)C1CCC(O)(c2ccccc2)CC1 (stereo not drawn)
inactive: CCRF-CEM 92.9 µM | NCI-H23 > 100 µM | Malme-3M > 100 µM | SK-OV-3 > 100 µM | RXF 393 50.7 µM | LOX IMVI 77.6 µM | SNB-19 > 100 µM | OVCAR-8 88.3 µM | SR 33.4 µM | U-251 40.6 µM | A498 > 100 µM | EKVX > 100 µM | SK-MEL-5 38.3 µM | SF-295 > 100 µM | HL-60 27.4 µM | UACC-257 54.6 µM

Cc1ccc2c(c1)-c1c3c(nn1-c1ccccc1)-c1ccccc1SC3O2 (stereo not drawn)
inactive: CCRF-CEM > 100 µM | NCI-H23 > 100 µM | Malme-3M > 100 µM | SK-OV-3 > 100 µM | RXF 393 > 100 µM | LOX IMVI > 100 µM | OVCAR-8 > 100 µM | U-251 > 100 µM | A498 > 100 µM | EKVX > 100 µM | SF-295 > 100 µM | HL-60 > 100 µM | UACC-257 > 100 µM

N=S(c1ccccc1)c1ccccc1[N+](=O)[O-] (stereo not drawn)
inactive: CCRF-CEM 11.1 µM | NCI-H23 20 µM | Malme-3M 15.1 µM | SK-OV-3 33 µM | LOX IMVI 13.1 µM | SNB-19 18.5 µM | OVCAR-8 23.8 µM | OVCAR-4 14.8 µM | SR 18.3 µM | U-251 17.4 µM | A498 34.3 µM | EKVX 19.8 µM | SK-MEL-5 15 µM | SF-295 18.8 µM | HL-60 12.9 µM | UACC-257 18.1 µM

Cc1ccc(S(=O)(=O)NCCCN(CCCNS(=O)(=O)c2ccc(C)cc2)S(=O)(=O)c2ccc(C)cc2)cc1
inactive: CCRF-CEM > 100 µM | NCI-H23 > 100 µM | Malme-3M > 100 µM | SK-OV-3 > 100 µM | RXF 393 > 100 µM | LOX IMVI > 100 µM | SNB-19 > 100 µM | OVCAR-8 > 100 µM | SR 69.7 µM | U-251 > 100 µM | SF-295 > 100 µM | HL-60 > 100 µM | UACC-257 > 100 µM

CN/N=C(/c1nc2ccc([N+](=O)[O-])cc2nc1O)C(O)c1ccc(C(O)/C(=N\NC)c2nc3ccc([N+](=O)[O-])cc3nc2O)cc1 (stereo not drawn)
inactive: CCRF-CEM 19.8 µM | NCI-H23 > 100 µM | Malme-3M > 100 µM | SK-OV-3 > 100 µM | RXF 393 > 100 µM | LOX IMVI > 100 µM | SNB-19 > 100 µM | OVCAR-8 > 100 µM | U-251 > 100 µM | A498 > 100 µM | EKVX > 100 µM | SK-MEL-5 > 100 µM | SF-295 66.4 µM | HL-60 4.37 µM | UACC-257 52.6 µM

C/C(=N\NS(=O)(=O)c1ccc(C)cc1)c1c(O)cc(C)oc1=O
inactive: CCRF-CEM > 100 µM | NCI-H23 > 100 µM | Malme-3M > 100 µM | SK-OV-3 > 100 µM | LOX IMVI > 100 µM | SNB-19 > 100 µM | OVCAR-8 > 100 µM | OVCAR-4 29.1 µM | SR > 100 µM | U-251 > 100 µM | A498 > 100 µM | EKVX > 100 µM | SK-MEL-5 > 100 µM | SF-295 > 100 µM | HL-60 > 100 µM | UACC-257 > 100 µM

COc1ccc(S(=O)(=O)N[C@H](C(=O)O)c2ccccc2)cc1
inactive: CCRF-CEM > 100 µM | NCI-H23 > 100 µM | Malme-3M > 100 µM | SK-OV-3 > 100 µM | RXF 393 > 100 µM | LOX IMVI > 100 µM | SNB-19 > 100 µM | OVCAR-8 > 100 µM | OVCAR-4 > 100 µM | U-251 > 100 µM | EKVX > 100 µM | SK-MEL-5 > 100 µM | SF-295 > 100 µM | UACC-257 > 100 µM

COC(=O)C(=O)CC(=O)CCn1[nH]c(=O)c(Cl)c(Cl)c1=O
inactive: NCI-H23 > 100 µM | Malme-3M > 100 µM | RXF 393 > 100 µM | LOX IMVI > 100 µM | SNB-19 > 100 µM | OVCAR-8 > 100 µM | OVCAR-4 > 100 µM | U-251 > 100 µM | A498 > 100 µM | EKVX > 100 µM | SK-MEL-5 > 100 µM | SF-295 > 100 µM | HL-60 > 100 µM | UACC-257 > 100 µM

Cc1nc(N)c(-c2ccccc2)s1
inactive: CCRF-CEM 36.5 µM | NCI-H23 > 100 µM | Malme-3M > 100 µM | SK-OV-3 38.3 µM | RXF 393 > 48.2 µM | LOX IMVI 52.4 µM | SNB-19 80.7 µM | OVCAR-8 > 76.7 µM | OVCAR-4 > 100 µM | U-251 > 48.5 µM | A498 > 32.4 µM | EKVX > 94.6 µM | SK-MEL-5 43.5 µM | SF-295 32.7 µM | HL-60 28.6 µM | UACC-257 53.7 µM

CN(C)/C=N/c1nc2c(ncn2C2OC(CO)C(O)C2O)c(=O)[nH]1 (stereo not drawn)
inactive: NCI-H23 > 100 µM | Malme-3M > 100 µM | SK-OV-3 > 100 µM | RXF 393 > 100 µM | SNB-19 > 100 µM | OVCAR-8 > 100 µM | OVCAR-4 > 100 µM | SR > 100 µM | U-251 > 100 µM | A498 > 100 µM | EKVX > 100 µM | SK-MEL-5 > 100 µM | SF-295 > 100 µM | HL-60 > 100 µM | UACC-257 > 100 µM

CCCCCCN(CCCCCC)C(=O)Cc1c2n(c3ccccc13)Cc1ccccc1-2
inactive: CCRF-CEM 28.1 µM | NCI-H23 49.8 µM | Malme-3M 88.9 µM | SK-OV-3 > 100 µM | RXF 393 26.5 µM | LOX IMVI 69.8 µM | SNB-19 80.7 µM | OVCAR-8 44.8 µM | OVCAR-4 79.8 µM | SR 14.9 µM | U-251 34.4 µM | EKVX 69.8 µM | SK-MEL-5 41.4 µM | SF-295 56.8 µM | HL-60 19.8 µM | UACC-257 49.7 µM

Cc1cc(C)nc(NS(=O)(=O)c2ccc(Nc3c4ccccc4nc4c(C(=O)N5CCN(CCO)CC5)ccc(Cl)c34)cc2)n1
inactive: CCRF-CEM 25.9 µM | NCI-H23 > 100 µM | Malme-3M > 100 µM | SK-OV-3 > 100 µM | RXF 393 > 100 µM | SNB-19 > 100 µM | OVCAR-8 > 100 µM | OVCAR-4 > 100 µM | U-251 97.3 µM | A498 > 100 µM | SK-MEL-5 42.8 µM | SF-295 > 100 µM | HL-60 34.4 µM | UACC-257 51.5 µM

C#CCNC(=O)NCCCCC(NC(C)=O)C(=O)NCc1ccccc1 (stereo not drawn)
inactive: CCRF-CEM > 100 µM | NCI-H23 > 100 µM | Malme-3M > 100 µM | SK-OV-3 > 100 µM | RXF 393 > 100 µM | LOX IMVI > 100 µM | SNB-19 > 100 µM | OVCAR-8 > 100 µM | OVCAR-4 > 100 µM | SR > 100 µM | U-251 > 100 µM | A498 > 100 µM | EKVX > 100 µM | SK-MEL-5 > 100 µM | SF-295 > 100 µM | UACC-257 > 100 µM

CC1OC(OP(=O)(OCc2ccccc2)OCc2ccccc2)C(OC(=O)c2ccccc2)C(OC(=O)c2ccccc2)C1I (stereo not drawn)
inactive: CCRF-CEM 24.5 µM | NCI-H23 30.3 µM | Malme-3M 39.4 µM | SK-OV-3 > 100 µM | RXF 393 12.7 µM | LOX IMVI 47.4 µM | SNB-19 43.8 µM | OVCAR-8 98.4 µM | OVCAR-4 60.1 µM | SR 17.5 µM | U-251 50.4 µM | EKVX 40.9 µM | SK-MEL-5 27.3 µM | SF-295 88.3 µM | HL-60 20.7 µM | UACC-257 39.3 µM

Cc1cc(C)c(-c2noc(-c3ccc(Cl)cc3)c2C2=NCCN2)c(C)c1
inactive: CCRF-CEM 20.7 µM | NCI-H23 17.4 µM | Malme-3M 20.4 µM | SK-OV-3 13.7 µM | RXF 393 14.2 µM | LOX IMVI 20.3 µM | SNB-19 28.1 µM | OVCAR-8 > 10 µM | OVCAR-4 78.9 µM | SR 16.4 µM | U-251 15.7 µM | EKVX 22.9 µM | SK-MEL-5 11.7 µM | SF-295 14 µM | HL-60 14.4 µM | UACC-257 17.5 µM

CCCN(CCC)C(=O)C(=O)c1c(N)[nH]n(-c2ccccc2)c1=O
inactive: CCRF-CEM 93.3 µM | NCI-H23 > 100 µM | Malme-3M > 100 µM | SK-OV-3 > 100 µM | LOX IMVI > 100 µM | SNB-19 > 100 µM | OVCAR-8 > 100 µM | OVCAR-4 > 100 µM | U-251 > 100 µM | A498 > 100 µM | EKVX > 100 µM | SK-MEL-5 > 100 µM | SF-295 > 100 µM | HL-60 80.9 µM | UACC-257 45.1 µM

c1ccc2c(c1)SC(=C1Sc3ccccc3S1)S2
inactive: CCRF-CEM > 100 µM | NCI-H23 > 100 µM | Malme-3M > 100 µM | SK-OV-3 > 100 µM | RXF 393 > 100 µM | LOX IMVI 75.7 µM | SNB-19 > 100 µM | OVCAR-8 > 100 µM | OVCAR-4 > 100 µM | U-251 > 100 µM | EKVX > 100 µM | SF-295 > 100 µM

O=C(/C=C/c1ccccc1F)c1ccc([N+](=O)[O-])cc1
inactive: NCI-H23 31.2 µM | Malme-3M 27.8 µM | SK-OV-3 56.5 µM | RXF 393 19.5 µM | LOX IMVI 4.35 µM | OVCAR-8 25.8 µM | OVCAR-4 25.3 µM | U-251 15.1 µM | EKVX 38.5 µM | SF-295 27.9 µM
